# Reference: paper PMC6009881, “New sulfurated derivatives of cinnamic acids and rosmaricine as inhibitors of STAT3 and NF-κB transcription factors” (Journal of Enzyme Inhibition and Medicinal Chemistry, 2017)
# Counter-ions that a name gives are not always drawn.
# Tests used:
# STAT3-SH2 domain = STAT3-SH2 domain (Homo sapiens, UniProt P40763); assay: STAT AlphaScreen-based assay (STAT3); format: binding; conditions: for IC50: read-out: STAT3 IC50 ±SD; for inhibition at 30 µM: read-out: STAT3 % inhibition ± SD at 30 μM
# STAT3-SH2 domain, sequence (P40763 whole entry, the tested form may be a part): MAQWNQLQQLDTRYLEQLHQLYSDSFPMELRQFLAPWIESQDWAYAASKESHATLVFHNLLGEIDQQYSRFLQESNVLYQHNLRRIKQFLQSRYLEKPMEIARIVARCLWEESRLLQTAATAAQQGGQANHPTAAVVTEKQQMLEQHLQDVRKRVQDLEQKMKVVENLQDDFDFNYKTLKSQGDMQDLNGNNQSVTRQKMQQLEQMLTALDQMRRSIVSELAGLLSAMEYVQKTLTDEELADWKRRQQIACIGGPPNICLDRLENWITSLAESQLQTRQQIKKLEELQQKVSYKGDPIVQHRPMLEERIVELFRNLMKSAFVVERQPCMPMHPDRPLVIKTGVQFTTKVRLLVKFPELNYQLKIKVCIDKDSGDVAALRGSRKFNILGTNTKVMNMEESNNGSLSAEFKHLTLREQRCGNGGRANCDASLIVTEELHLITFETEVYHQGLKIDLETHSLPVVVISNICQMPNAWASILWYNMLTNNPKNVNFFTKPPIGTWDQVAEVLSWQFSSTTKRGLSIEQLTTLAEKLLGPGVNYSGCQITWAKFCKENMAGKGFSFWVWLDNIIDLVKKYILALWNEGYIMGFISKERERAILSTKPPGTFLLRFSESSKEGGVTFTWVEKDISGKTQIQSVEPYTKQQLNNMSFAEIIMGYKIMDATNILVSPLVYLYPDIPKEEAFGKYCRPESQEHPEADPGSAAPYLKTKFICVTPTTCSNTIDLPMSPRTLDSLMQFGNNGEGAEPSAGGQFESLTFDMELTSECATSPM
# SH2-domain of STAT1 = molecular target: T1, SH2-domain of STAT1 (Homo sapiens, UniProt P42224); assay: STAT AlphaScreen-based assay (STAT1 selectivity); format: binding; conditions: for inhibition at 30 µM: read-out: STAT1 % inhibition ± SD at 30 μM, 30 μM; for IC50: read-out: STAT1 IC50 ±SD
# T1 sequence (P42224 1-750): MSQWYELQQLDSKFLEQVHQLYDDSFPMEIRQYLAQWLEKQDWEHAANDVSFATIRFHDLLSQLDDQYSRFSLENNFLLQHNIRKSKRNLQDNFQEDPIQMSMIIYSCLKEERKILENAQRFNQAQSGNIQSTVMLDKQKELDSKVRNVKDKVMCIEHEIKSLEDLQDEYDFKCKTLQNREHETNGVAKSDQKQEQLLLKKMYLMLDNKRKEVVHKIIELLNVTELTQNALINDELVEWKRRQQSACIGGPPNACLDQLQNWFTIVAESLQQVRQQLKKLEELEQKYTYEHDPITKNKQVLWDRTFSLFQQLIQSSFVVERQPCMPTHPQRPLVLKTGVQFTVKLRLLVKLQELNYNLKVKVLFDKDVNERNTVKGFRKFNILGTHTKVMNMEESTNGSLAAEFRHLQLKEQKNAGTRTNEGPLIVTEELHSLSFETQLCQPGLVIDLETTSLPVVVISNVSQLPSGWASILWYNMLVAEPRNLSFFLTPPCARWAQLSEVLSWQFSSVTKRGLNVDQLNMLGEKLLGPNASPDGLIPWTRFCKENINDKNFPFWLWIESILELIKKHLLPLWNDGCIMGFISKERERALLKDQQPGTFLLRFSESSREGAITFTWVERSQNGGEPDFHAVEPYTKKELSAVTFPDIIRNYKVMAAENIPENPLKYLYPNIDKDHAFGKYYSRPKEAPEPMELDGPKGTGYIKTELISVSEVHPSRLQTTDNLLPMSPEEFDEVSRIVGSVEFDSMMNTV
# Procedure: STAT3 inhibitory activity of the described compounds was tested by the AlphaScreen-based assay to evaluate the potential inhibition of the interaction between STAT3-SH2 domain and pTyr-containing peptides according to the previously reported procedure. For the most interesting compounds, selectivity tests versus STAT1 were performed.
# The new sulfurated-drug hybrids, together with their parent compounds have been submitted to the AlphaScreen-based assay, to investigate their ability to bind STAT3 directly, through the evaluation of the inhibition of the binding of SH2-containing proteins to their correspondent phosphopeptides, the physiological ligands. […] Since AlphaScreen is a cell-free assay, not always there is a correspondence between the potency of STAT3 inhibition and cytotoxicity, probably due to not optimal physicochemical properties of the tested compounds, such as solubility and chemical stability in the culture medium and cell permeation.
# HCT-116 cells = assay: MTT assay, cytotoxicity on HCT-116; format: cell-based, human; conditions: human, HCT-116 cells, MTT assay, 48 h; NA = not active up to 100 μM; read-out: Cytotoxicity (HCT-116) IC50 ±SD
# Procedure: Following the same protocol used for previous cytotoxicity assays by N. Ferri[55], cells were seeded in 48-well plate (40.000 cells/well) and, after 24 h, they were incubated with different concentrations of our compounds for 48 h.
# The determination of the conversion of MTT (3-(4,5-dimethyl-2-thiazolyl)-2,5-diphenyl-2H-tetrazolium bromide) to formazan was determined by using a commercially available kit (Millipore, Billerica, MA), according to the manufacturer’s instructions.
# [1] = test system: NF-κB promoter activity in HCT-116 cells; assay: Luciferase reported NF-κB promoter activity assay; format: cell-based; conditions: Homo sapiens, 2 h pre-treatment, TNF-α 10 ng/ml, NA = not active up to 100 μM, read-out: NF-κB promoter assay (HCT-116) IC50 ±SD
# Procedure: To measure the NF-κB promoter activity, HCT-116 cells were seeded in 100 mm dish and transiently transfected with 6 μg of DNA (NF-κB plasmid, containing luciferase reporter gene[57] with turbofect reagent (Carlo Erba Reagents). After 24 h, cells were seeded in 48-well plates (40.000 cells per well). On the next day, cells were incubated with our compounds for 2 h (pre-treatment) and then TNF-α was added in every well at (10 ng/ml). After 5–6 h, luciferase activity was measured by using Neolite reagent (PerkinElmer Life Sciences, Waltham, MA) according to the manufacturer’s instructions.
# [2] = test system: STAT3 reporter activity in HeLa cells; assay: STAT3 luciferase reporter gene assay; format: cell-based; conditions: Homo sapiens, 2 h pretreatment, oncostatin M 10 ng/ml 4 h, read-out: STAT3 reporter assay (HeLa) IC50 ±SD
# Procedure: STAT3 reporter HeLa stable cell lines (Signosis Inc, Santa Clara, CA) were incubated in a 96-well microplate for 24 h. Cells were pretreated with test compounds for 2 h, and 10 ng/ml (w/v) of oncostatin M were applied and incubated for 4 h. Cells were washed with medium not supplemented with phenol red, and Steady-Glo® reagent (Promega, Madison, WI) was applied. After 15 min incubation, the signals were detected by ARVO Light 1420 (PerkinElmer Life Sciences, Waltham, MA). The relative signal intensity was calculated in each well as the ratio for the mean signal of vehicle.
SMILES,IC50 (STAT3-SH2 domain; AlphaScreen assay),inhibition at 30 µM (STAT3-SH2 domain; AlphaScreen assay),inhibition at 30 µM (SH2-domain of STAT1),IC50 (SH2-domain of STAT1),further results
"CS(=O)(=O)SCCO [Compound 1, S-2-hydroxyethyl methanesulfonothioate]",> 30 µM,11.6%,,,
"CS(=O)(=O)SCCCCO [Compound 2, S-4-hydroxybutyl methanesulfonothioate]",4.4 ± 0.3 µM,88.4 ± 0.5%,73.7 ± 1.4%,8.6 ± 0.7 µM,
"CS(=O)(=O)SCCN [Compound 3, S-2-aminoethyl methanesulfonothioate hydrobromide]",> 30 µM,-10.2%,,> 3 µM,"inhibition at 3 µM (STAT3-SH2 domain; AlphaScreen assay, 3 μM): 46.8%; inhibition at 3 µM (SH2-domain of STAT1): 14.5%"
"C=CCSSCCO [Compound 4, 2-(Allyldisulfanyl)ethanol]",22.2 ± 3 µM,55.7 ± 2.5%,11.7 ± 6%,> 30 µM,
"Oc1ccc(-c2cc(=S)ss2)cc1 [Compound 5, 5-(4-hydroxyphenyl)-1,2-dithiol-3-thione]",> 30 µM,43.7%,,,IC50 at 48 h (HCT-116 cells): 71.2 ± 15 µM; IC50 [1]: 36.7 ± 11.4 µM
"CS(=O)(=O)SCCCCC(=O)O [Compound 6, 5-(methanesulfonylthio)pentanoic acid]",4.7 ± 1.1 µM,72.5 ± 4.8%,,> 3 µM,inhibition at 3 µM (SH2-domain of STAT1): 8.6%
"COC(=O)CCCCSS(C)(=O)=O [Compound 7, Methyl 5-((methylsulfonyl)thio)pentanoate]",1.9 ± 0.2 µM,99.6 ± 0.1%,70.8 ± 1.2%,20.1 ± 0.4 µM,
"CS(=O)(=O)CCCCC(=O)O [Compound 8, 5-(Methylsulfonyl)pentanoic acid]",> 30 µM,3.8 ± 2.8%,,,STAT3 IC50 ±SD (STAT3-SH2 domain; AlphaScreen assay): loss of activity on STAT3; melting point: 111.3 to 112.8 °C
"C=CCSSCCC(=O)O [Compound 9, 3-(allyldisulfanyl)propionic acid]",> 30 µM,43.9 ± 3.6%,,,
"C=CCSSCCC(=O)OC [Compound 10, Methyl 3-(allyldisulfanyl)propanoate]",> 30 µM,42 ± 4.7%,11.2%,> 30 µM,
"O=C(O)c1ccc(-c2cssc2=S)cc1 [Compound 11, 4-(3-thioxo-3H-1,2-dithiol-4-yl)benzoic acid]",> 100 µM,-1.2 ± 6%,,,IC50 [2]: > 100 µM
"COc1cc(/C=C/C(=O)O)ccc1O [Compound 12, ferulic acid, reference compound]",> 30 µM,0.2 ± 8.2%,,,
COC(=O)/C=C/c1ccc(O)c(OC)c1 [Compound 13],> 30 µM,2.1 ± 2.3%,,,
"COc1cc(/C=C/C(=O)OCCSS(C)(=O)=O)ccc1O [Compound 14, (E)-2-(methylsulfonylthio)ethyl 3-(4-hydroxy-3-methoxyphenyl)acrylate]",0.9 µM,110.1 ± 0.2%,110.5 ± 0.6%,7 ± 0.7 µM,IC50 [2]: 65.4 ± 1 µM; IC50 at 48 h (HCT-116 cells): 50.4 ± 5.9 µM; IC50 [1]: 116 ± 2.9 µM
"COc1cc(/C=C/C(=O)OCCCCSS(C)(=O)=O)ccc1O [Compound 15, (E)-4-(methylsulfonylthio)butyl 3-(4-hydroxy-3-methoxyphenyl)acrylate]",0.3 µM,100 ± 0.1%,86 ± 6.7%,1.8 ± 0.4 µM,IC50 [2]: 57.5 ± 1.1 µM; IC50 at 48 h (HCT-116 cells): 64.4 ± 9.1 µM; IC50 [1]: 94 ± 4.6 µM
"COc1cc(/C=C/C(=O)NCCSS(C)(=O)=O)ccc1O [Compound 16, (E)-S-2-(3-(4-hydroxy-3-methoxyphenyl)acrylamido)ethyl methanesulfonothioate]",1.8 ± 0.5 µM,107.8 ± 0.1%,4.1 ± 5.4%,> 30 µM,
"C=CCSSCCOC(=O)/C=C/c1ccc(O)c(OC)c1 [Compound 17, (E)-2-(allyldisulfanyl)ethyl 3-(4-hydroxy-3-methoxyphenyl)acrylate]",7.8 ± 0.6 µM,67.9 ± 0.8%,12 ± 4.7%,> 30 µM,
"COc1cc(/C=C/C(=O)Oc2ccc(-c3cc(=S)ss3)cc2)ccc1O [Compound 18, (E)-4-(3-thioxo-3H-1,2-dithiol-5-yl)phenyl 3-(4-hydroxy-3-methoxyphenyl)acrylate]",28.5 ± 0.7 µM,51.3 ± 0.7%,44.2 ± 1.9%,> 30 µM,
"COC(=O)/C=C/c1ccc(O)c(O)c1 [Compound 20, (E)-methyl 3-(3,4-dihydroxyphenyl)acrylate]",> 30 µM,12.8 ± 1.1%,,,IC50 at 48 h (HCT-116 cells): 90.8 µM
"CS(=O)(=O)SCCNC(=O)/C=C/c1ccc(O)c(O)c1 [Compound 22, (E)-S-2-(3-(3,4-dihydroxyphenyl)acrylamido)ethyl methanesulfonothioate]",0.9 ± 0.1 µM,99.8 ± 0.1%,-17.8 ± 0.3%,> 30 µM,
"CS(=O)(=O)SCCOC(=O)C=Cc1ccccc1 [Compound 25, 2-(Methylsulfonylthio)ethyl cinnamate]",0.5 µM,100%,100.3 ± 0.2%,3.6 ± 0.4 µM,IC50 [2]: 72.5 ± 4.4 µM; IC50 at 48 h (HCT-116 cells): 95.2 ± 8.9 µM; melting point: 76.8 to 78.5 °C
"CS(=O)(=O)SCCOC(=O)/C=C/c1ccc(Cl)c(Cl)c1 [Compound 26, (E)-2-(methylsulfonylthio)ethyl 3-(3,4-dichlorophenyl)acrylate]",0.3 µM,100 ± 0.1%,104 ± 1.7%,1.9 ± 0.2 µM,melting point: 69.6 to 71.2 °C
"COc1ccc(/C=C/C(=O)OCCSS(C)(=O)=O)cc1OC [Compound 27, (E)-2-((methylsulfonyl)thio)ethyl 3-(3,4-dimethoxyphenyl)acrylate]",0.3 µM,99.7 ± 0.1%,68.9 ± 10.2%,20.9 ± 4.9 µM,fold more selective for STAT3 versus STAT1 (STAT3-SH2 domain; in comparison to 15 and 26): 10 fold; melting point: 99.8 to 102.7 °C
"COCCOCOc1ccc(/C=C/C(=O)OCCSS(C)(=O)=O)cc1OCOCCOC [Compound 28, (E)-2-(methylsulfonylthio)ethyl 3-(3,4-bis((2-methoxyethoxy)methoxy)phenyl)acrylate]",0.6 ± 0.1 µM,100 ± 0.1%,98.4 ± 0.9%,6.3 ± 0.5 µM,
"COCCOCOc1ccc(/C=C/C(=O)NCCSS(C)(=O)=O)cc1OCOCCOC [Compound 29, (E)-S-2-(3-(3,4-bis((2-methoxyethoxy)methoxy)phenyl)acrylamido)ethyl methanesulfonothioate]",1.1 µM,100.1 ± 0.1%,63.3 ± 0.5%,19.5 ± 0.3 µM,melting point: 62.3 to 64.6 °C
